The values that follow come from patent US20250127740A1, “COMPOSITION CONTAINING 3-HYDROXYANTHRANILIC ACID AND COMPOUNDS THAT ALTER IRON HOMEOSTASIS AND METHOD OF ITS USE” (priority 2021, published 2025).

Data set [1] has as its system P. aeruginosa. The data set is described as follows: Inhibition of P. aeruginosa growth in liquid media (OD 600 nm) and CFUs on solid media. Type of data set: cell-based. The following applies: different dosages, single compound. On the procedure: (§1) 3HAA was tested for its ability to negatively impact bacterial growth. 3HAA was tested at different dosages for inhibition of E. coli and P. aeruginosa growth in liquid media (measured by optical density at 600 nm) and colony forming units (CFUs) on solid media.
(§2) Deferoxamine (DFO) was also tested for its ability to impact bacterial growth. Deferoxamine was tested at different dosages for inhibition of E. coli and P. aeruginosa growth in liquid media (measured by optical density at 600 nm) and CFUs on solid media.

In data set [2] the test system is E. coli. The data set is described as follows: Colony formation (CFUs) of E. coli on culture plate. Format: cell-based.
In data set [3] the test system is E. coli. Format: cell-based. The following applies: different dosages; liquid media OD 600 nm and CFUs on solid media; single compound. The procedure:
as §1, §2

Data set [4] has as its system E. coli. The data set is described as follows: Pre-treatment of E. coli in liquid media, then colony count on DFO+3HAA plates. Format: cell-based. The conditions noted are these: pretreatment 1 mM 3HAA or 15 uM DFO, 16 hr at 37 degrees. The procedure: E. coli inoculates were grown in liquid media containing either control (no additives), 1 mM 3HAA or 15 uM DFO for 16 hr at 37 degrees with shaking. The cultures were spotted to either Control plates (no additives) or plate containing DFO+3HAA and left to dry at room temperature. After incubated at 37 degrees for 16 hours, colonies were counted.

Data set [5] concerns P. aeruginosa. The data set is described as follows: Colony formation (CFUs) of P. aeruginosa on culture plate. Type of data set: cell-based. The following applies: 1 mM 3HAA and 15 uM DFO alone or in combination. The procedure:
To test the effects of 3HAA and DFO on colony formation of P. aeruginosa, 1 mM 3HAA and 15 uM DFO alone or in combination were added to culture plate containing P. aeruginosa.

For data set [6], the system named is bacterial growth. The data set is described as follows: Growth lag-time in liquid media. The conditions noted are these: 1 mM 3HAA, 15 uM DFO, alone or combined. Format: cell-based. On the procedure:
By contrast, 1 mM 3HAA alone increased lag-time by 6% individually. 15 uM DFO alone increased lag-time by 4% individually. Combination of 1 mM 3HAA with 15 uM DFO provided multiple fold impact on growth inhibition that is statistically significant to either single treatment alone.

Data set [7] deals with E. coli. The data set is described as follows: Colony size of E. coli on plates. Type of data set: cell-based. The following applies: for effect on colony size (E. coli): 1 mM 3HAA or 8 mM FAC alone.
Description: To test the effects of 3HAA, DFO and FAC on colony size, colony size was measured for E. coli in plates containing 1 mM 3HAA, 15 uM DFO, and 8 mM FAC alone and in combination.
Data set [8] has as its system C. elegans. Format: in vivo. The conditions noted are these: added to culture medium of haao-1 knockout worms (elevated endogenous 3HAA). From the text:
Using the haao-1 knockout strain exposes the animals, but not their bacterial food source, to 3HAA.

The test system of data set [9] is E. coli infection. The data set is described as follows: Infection of C. elegans challenged with fluorescently labeled E. coli. Format: in vivo. The following applies: fluorescence microscopy over 7 days. From the text: Infection was monitored using fluorescence microscopy over 7 days. Heatmap of infection progression of individual animals over days—purple 32 not infected, red=high infection.

Where [10] appears, read: 1 mM 3HAA and 8 mM FAC alone or in combination.

Turning to `Nc1c(O)cccc1C(=O)O` [3HAA, 3-hydroxyanthanilic acid], the “impact on growth of P. aeruginosa” value in data set [1] is “negatively affects growth of both E. coli and P. aeruginosa, but only at high doses”. The “impact on colony formation (E. coli)” value in data set [2] (setting [10]) is given as “no significant impact was observed”; in data set [2] (1 mM 3HAA or 15 uM DFO alone), “Neither 1 mM 3HAA nor 15 uM DFO alone showed significant impact”. Moreover, the “impact on growth of E. coli” value in data set [3] was “negatively affects growth of both E. coli and P. aeruginosa, but only at high doses”. In data set [4], the “sensitization of bacteria to the 3HAA and DFO combination by pretreatment” value was “sensitizes bacteria to the combination of 3HAA and DFO”. Besides, the “impact on colony formation (P. aeruginosa)” value in [5] is reported as “neither affected colony formation alone”. Further, in [6], the “increase in growth lag-time” value was 6%. Further, in data set [7], the “effect on colony size (E. coli)” value is “increased colony size”.
Take `CC(=O)N(O)CCCCCNC(=O)CCC(=O)N(O)CCCCCNC(=O)CCC(=O)N(O)CCCCCN` [DFO, deferoxamine, reference compound]: the “toxicity to C. elegans relative to wild type animals” value in data set [8] was “neither the combination of DFO and elevated 3HAA (haao-1) nor the combination of FAC with elevated 3HAA (haao-1) were toxic”. In addition, the “increase in growth lag-time” value in [6] is listed as 4%. Moreover, the “decrease of colony size / colony area (E. coli)” value in [7] (1 mM 3HAA, 15 uM DFO, 8 mM FAC, alone or in combination) was around 8%.
With ferric ammonium citrate [FAC], the “impact on growth of P. aeruginosa” value in data set [1] is recorded as “very little impact”. Further, in data set [2] (setting [10]), the “impact on colony formation (E. coli)” value is listed as “no significant impact was observed”. Further, the “impact on growth of E. coli” value in data set [3] was “very little impact”. The “protection from E. coli infection” value in [9] (haao-1 knockout worms (high endogenous 3HAA)) is reported as “This protection was enhanced”; in data set [9] (wild type worms) it was “protected from infection”. Moreover, in data set [7], the “effect on colony size (E. coli)” value is listed as “increased colony size”.
